In US10961228B2, “JAK1 selective inhibitors” (AstraZeneca AB, priority 2017, dated 2021):

Assays:
[1] = biological target: recombinant JAK3 (amino acids 781-1124) (Homo sapiens (Human), UniProt P52333); assay: Enzyme inhibition studies, JAK3 (5 mM ATP, Caliper); type: biochemical
Description: (§1) JAK enzyme was expressed as N-terminal GST fusion in insect cells and purified by glutathione-affinity and size-exclusion chromatographies. Enzymes were assayed at their approximated high end of physiological ATP concentration of 5 mM, in the presence of inhibitor dosed at 30, 3, 0.3, 0.03, 0.003 and 0 μM final test concentrations.
(§2) Phosphorylated and unphosphotylated peptides were separated and quantified by a Caliper LC3000 system (Caliper Life Sciences, MA) for calculating percent inhibition.

[2] = biological target: recombinant JAK1 (amino acids 866-1154) (Homo sapiens (Human), UniProt P23458); assay: Enzyme inhibition studies, JAK1 (5 mM ATP, Caliper); type: biochemical
Chain of recombinant JAK1 (amino acids 866-1154) (P23458 866-1154): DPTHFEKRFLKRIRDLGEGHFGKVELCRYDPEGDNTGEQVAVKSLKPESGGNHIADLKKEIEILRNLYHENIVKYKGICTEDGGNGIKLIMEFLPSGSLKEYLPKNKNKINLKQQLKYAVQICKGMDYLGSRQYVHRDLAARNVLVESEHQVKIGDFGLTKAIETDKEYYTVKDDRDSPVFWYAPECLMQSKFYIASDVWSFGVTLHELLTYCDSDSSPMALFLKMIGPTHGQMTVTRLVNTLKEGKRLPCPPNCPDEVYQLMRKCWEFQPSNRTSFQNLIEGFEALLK
Description: as §1, §2

[3] = biological target: recombinant JAK2 (amino acids 831-1132) (Homo sapiens (Human), UniProt O60674); assay: Enzyme inhibition studies, JAK2 (5 mM ATP, Caliper); type: biochemical
Chain of recombinant JAK2 (amino acids 831-1132) (O60674 831-1132): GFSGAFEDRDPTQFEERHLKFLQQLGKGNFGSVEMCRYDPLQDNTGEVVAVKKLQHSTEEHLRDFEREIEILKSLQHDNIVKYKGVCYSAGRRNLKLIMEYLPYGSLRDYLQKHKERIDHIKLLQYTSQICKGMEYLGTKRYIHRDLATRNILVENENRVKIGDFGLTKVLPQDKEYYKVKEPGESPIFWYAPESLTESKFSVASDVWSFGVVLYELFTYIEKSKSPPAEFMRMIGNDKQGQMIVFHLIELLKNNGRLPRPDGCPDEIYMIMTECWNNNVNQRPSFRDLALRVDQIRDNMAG
Description: as §1, §2

[4] = tested on: IL-13 induced STAT6 promotor luciferase reporter in U937 monocytes (U937-STAT6-Luc); assay: Cellular interleukin (IL-13) induced JAK-STAT6-luciferase assay (pSTAT6); type: cell-based; conditions: Homo sapiens, U-937; IL-13 induced STAT6-luciferase, U937-STAT6-Luc cells
Description: Cells were harvested by centrifugation at 250 g for 5 min and resuspended in Assay buffer (20 mM HEPES, 1×HBSS and 0.1% BSA) to 1000 cells pr μl. For stimulation of cells was used interleukin (IL-13) also dissolved in Assay buffer to […]. […] Test and control compounds were applied to assay plates (low vol white 384-well plates) in serial dilutions from 10 mM to 0.5 nM at 5 nl pr well in DMSO.
To each well was added 4 μl cells and 4 μl interleukin (IL-13) and the plates were sealed and incubated at 37° C. for 4½ h and then at room temperature for 30 min. The assay was developed by addition of 4 μl pr well of SteadyGlo (Promega) and after […] the plates were read at an Envision plate reader with luminescence filter.

Chain of recombinant JAK3 (amino acids 781-1124) (P52333 781-1124): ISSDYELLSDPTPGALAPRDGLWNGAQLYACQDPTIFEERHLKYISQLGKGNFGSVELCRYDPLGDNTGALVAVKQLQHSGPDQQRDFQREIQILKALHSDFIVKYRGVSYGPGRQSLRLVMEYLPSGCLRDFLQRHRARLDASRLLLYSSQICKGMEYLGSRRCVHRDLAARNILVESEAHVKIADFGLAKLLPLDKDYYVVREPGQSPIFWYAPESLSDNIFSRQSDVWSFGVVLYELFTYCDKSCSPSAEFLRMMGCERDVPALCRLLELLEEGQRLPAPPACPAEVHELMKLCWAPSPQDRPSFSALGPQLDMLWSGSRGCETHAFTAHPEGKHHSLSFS

SMILES	IC50 [1] [nM]	IC50 [2] [nM]	IC50 [3] [nM]	IC50 [4] [nM]
COC[C@H](C(=O)Nc1cccc2c(-c3nc(Nc4cccc(S(C)(=O)=O)c4F)ncc3C)c[nH]c12)N1CCCN(C)CC1 [Example 42, (R)-N-(3-(2-((2-fluoro-3-(methylsulfonyl)phenyl)amino)-5-methylpyrimidin-4-yl)-1H-indol-7-yl)-3-methoxy-2-(4-methyl-1,4-diazepan-1-yl) propanamide]	> 30000	< 3	604	36
Cc1cnc(Nc2cccc(S(C)(=O)=O)c2F)nc1-c1c[nH]c2c(NC(=O)[C@@H](COCc3ccccc3)N3CCN(C)CC3)cccc12 [Example 64, (R)-3-(benzyloxy)-N-(3-(2-((2-fluoro-3-(methylsulfonyl)phenyl)amino)-5-methylpyrimidin-4-yl)-1H-indol-7-yl)-2-(4-methylpiperazin-1-yl)propanamide]	> 30000	< 30	910	26
CC[C@H](C(=O)Nc1cccc2c(-c3nc(Nc4cccc(S(C)(=O)=O)c4F)ncc3C)c[nH]c12)N1CCN(C)CC1C (stereo in doubt) [Example 60, (R)-2-((S)-2,4-dimethylpiperazin-1-yl)-N-(3-(2-((2-fluoro-3-(methylsulfonyl)phenyl)amino)-5-methylpyrimidin-4-yl)-1H-indol-7-yl)butanamide]	> 30000	7.4	11900	64.2
COC[C@@H](C(=O)Nc1cccc2c(-c3nc(Nc4cccc(S(C)(=O)=O)c4F)ncc3F)c[nH]c12)N1CCN(C)C[C@H]1C [Example 56]	> 30000	123	> 30000	745
COC[C@@H](C(=O)Nc1cccc2c(-c3nc(Nc4cccc(S(C)(=O)=O)c4F)ncc3C)c[nH]c12)N1C[C@H](C)N(C)[C@@H](C)C1 [Example 21, (S)-N-(3-(2-((2-fluoro-3-(methylsulfonyl)phenyl)amino)-5-methylpyrimidin-4-yl)-1H-indol-7-yl)-3-methoxy-2-((3S,5S)-3,4,5-trimethylpiperazin-1-yl)propanamide]	> 30000	986	> 30000	2230
CC[C@@H](C(=O)Nc1cccc2c(-c3nc(Nc4cccc(S(C)(=O)=O)c4F)ncc3F)c[nH]c12)N1C[C@@H](C)N[C@H](C)C1 [Example 30, (S)-2-((3R,5R)-3,5-dimethylpiperazin-1-yl)-N-(3-(5-fluoro-2-((2-fluoro-3-(methylsulfonyl)phenyl)amino)pyrimidin-4-yl)-1H-indol-7-yl)butanamide]	> 30000	14.2	1160	72
COC[C@@H](C(=O)Nc1cccc2c(-c3nc(Nc4cccc(S(C)(=O)=O)c4F)ncc3C)c[nH]c12)N1CCN(C)C[C@H]1C [Example 54, (S)-2-((R)-2,4-dimethylpiperazin-1-yl)-N-(3-(2-((2-fluoro-(methylsulfonyl)phenyl)amino)-5-methylpyrimidin-4-yl)-1H-indol-7-yl)-3-methoxypropanamide]	> 30000	14	6720	258
CCS(=O)(=O)c1cccc(Nc2ncc(C)c(-c3c[nH]c4c(NC(=O)[C@@H](C)N5CCN(C)CC5)cccc34)n2)c1F [Example 3, (R)-N-(3-(2-(3-(ethylsulfonyl)-2-fluorophenylamino)-5-methylpyrimidin-4-yl)-1H-indol-7-yl)-2-(4-methylpiperazin-1-yl)propanamide]	> 30000	< 3	4120	39
C[C@H]1CN([C@@H](C)C(=O)Nc2cccc3c(-c4nc(Nc5cccc(S(C)(=O)=O)c5F)ncc4F)c[nH]c23)C[C@H](C)N1 [Example 12, (S)-2-((3S,5S)-3,5-dimethylpiperazin-1-yl)-N-(3-(5-fluoro-2-((2-fluoro-3-(methylsulfonyl)phenyl)amino)pyrimidin-4-yl)-1H-indol-7-yl)propanamide]	> 30000	1130	> 30000	> 4950
C[C@H](C(=O)Nc1cccc2c(-c3nc(Nc4cccc(S(C)(=O)=O)c4F)ncc3Cl)c[nH]c12)N1CCN(C)CC1 [Example 5]	> 30000	5.1	5020	29
COC[C@H](C(=O)Nc1cccc2c(-c3nc(Nc4cccc(S(C)(=O)=O)c4F)ncc3C)c[nH]c12)N1CCN(C)C[C@H]1C [Example 55, (R)-2-((R)-2,4-dimethylpiperazin-1-yl)-N-(3-(2-((2-fluoro-3-(methylsulfonyl)phenyl)amino)-5-methylpyrimidin-4-yl)-1H-indol-7-yl)-3-methoxypropanamide]	> 30000	< 3	293	26
CC[C@H](C(=O)Nc1cccc2c(-c3nc(Nc4cccc(S(C)(=O)=O)c4F)ncc3C)c[nH]c12)N1CCN(C)CC1C (stereo in doubt) [Example 51, (R)-2-((R)-2,4-dimethylpiperazin-1-yl)-N-(3-(2-((2-fluoro-3-(methylsulfonyl)phenyl)amino)-5-methylpyrimidin-4-yl)-1H-indol-7-yl)butanamide]	> 30000	< 3	612	24
COC[C@H](C(=O)Nc1cccc2c(-c3nc(Nc4cccc(S(C)(=O)=O)c4F)ncc3F)c[nH]c12)N1CCN(C)C[C@H]1C [Example 57, (R)-2-((R)-2,4-dimethylpiperazin-1-yl)-N-(3-(5-fluoro-2-((2-fluoro-3-(methylsulfonyl)phenyl)amino)pyrimidin-4-yl)-1H-indol-7-yl)-3-methoxypropanamide]	> 30000	< 3	709	21
CC[C@H](C(=O)Nc1cccc2c(-c3nc(Nc4cccc(S(C)(=O)=O)c4F)ncc3C)c[nH]c12)N1CCCN(C)CC1 [Example 37, (R)-N-(3-(2-((2-fluoro-3-(methylsulfonyl)phenyl)amino)-5-methylpyrimidin-4-yl)-1H-indol-7-yl)-2-(4-methyl-1,4-diazepan-1-yl)butanamide]	> 30000	< 3	968	26.9
Cc1cnc(Nc2cccc(S(C)(=O)=O)c2F)nc1-c1c[nH]c2c(NC(=O)[C@@H](C)N3CCN(CCO)CC3)cccc12 [Example 1, (R)-N-(3-(2-((2-fluoro-3-(methylsulfonyl)phenyl)amino)-5-methylpyrimidin-4-yl)-1H-indol-7-yl)-2-(4-(2-hydroxyethyl)piperazin-1-yl)propanamide]	> 30000	< 3	1580	41
CC[C@@H](C(=O)Nc1cccc2c(-c3nc(Nc4cccc(S(C)(=O)=O)c4F)ncc3C)c[nH]c12)N1CCN(C)CC1 [Example 13, (S)-N-(3-(2-((2-fluoro-3-(methylsulfonyl)phenyl)amino)-5-methylpyrimidin-4-yl)-1H-indol-7-yl)-2-(4-methylpiperazin-1-yl)butanamide]	> 30000	22.4	26100	97
Cc1cnc(Nc2cccc(S(C)(=O)=O)c2F)nc1-c1c[nH]c2c(NC(=O)[C@@H](C)N3CCN(C)C[C@H]3C)cccc12 [Example 48, (R)-2-((R)-2,4-dimethylpiperazin-1-yl)-N-(3-(2-((2-fluoro-3-(methylsulfonyl)phenyl)amino)-5-methylpyrimidin-4-yl)-1H-indol-7-yl)propanamide]	> 30000	3	8230	82
Cc1cnc(Nc2cccc(S(C)(=O)=O)c2F)nc1-c1c[nH]c2c(NC(=O)[C@H](C)N3C[C@H](C)N[C@@H](C)C3)cccc12 [Example 10, (S)-2-((3S,5S)-3,5-dimethylpiperazin-1-yl)-N-(3-(2-((2-fluoro-3-(methylsulfonyl)phenyl)amino)-5-methylpyrimidin-4-yl)-1H-indol-7-yl)propanamide]	> 30000	39.8	21000	352
CC[C@H](C(=O)Nc1cccc2c(-c3nc(Nc4cccc(S(C)(=O)=O)c4F)ncc3C)c[nH]c12)N1C[C@@H](C)N[C@H](C)C1 [Example 26, (R)-2-((3R,5R)-3,5-dimethylpiperazin-1-yl)-N-(3-(2-((2-fluoro-3-(methylsulfonyl)phenyl)amino)-5-methylpyrimidin-4-yl)-1H-indol-7-yl)butanamide]	> 30000	< 3	456	38
CC[C@H](C(=O)Nc1cccc2c(-c3nc(Nc4cccc(S(C)(=O)=O)c4F)ncc3F)c[nH]c12)N1CCN(C)CC1C (stereo in doubt) [Example 53, (R)-2-((R)-2,4-dimethylpiperazin-1-yl)-N-(3-(5-fluoro-2-((2-fluoro-3-(methylsulfonyl)phenyl)amino)pyrimidin-4-yl)-1H-indol-7-yl)butanamide]	> 30000	< 3	2080	48
